Source: patent US9434687B2, “Detection of synthetic cannabinoids” (priority 2011, dated 2016)

Legend:
Assay type in all cases: binding, sheep
[1] = tested on: IgG fraction of antiserum raised to Immunogen II; assay: Competitive ELISA, antibody RS1833B12 to Immunogen II, tracer ESC4555 (Example 36); details: Antibody to Immunogen II; cross-reactants at 100 ng/ml; 1000 ng/ml; standard JWH-018
Procedure: (§1) An aqueous solution of each immunogen was formulated with Freund's Complete Adjuvant (FCA) to form an emulsion consisting of 2 mg/ml*immunogen in 50% (v/v) FCA. Three sheep were immunised with this emulsion (1° immunisation), 0.25 ml being intramuscularly injected at each of four sites in the flank of each animal. Subsequent immunizations (boosts) contained 1 mg/ml*immunogen. All boosts were emulsified in 50% (v/v) Freund's Incomplete Adjuvant (FIA) and were administered in the same manner as the 1° immunisation, at monthly intervals. Blood sampling took place 7 to 14 days after each boost. *The general procedure for immunogen administration is outlined above, however, it was necessary to deviate from this protocol in some cases, due to reduced immunogen concentrations (Immunogens II, IV, VII and VIII) and/or amount available (Immunogen VIII). Any deviations from the protocol described are outlined in Table 5 below and highlighted in bold.
The appropriate antibody coating dilution was determined using standard ELISA checkerboard techniques. The plate was incubated overnight at 4° C., washed 4 times over 10 minutes with Tris buffered saline containing Tween 20 (TBST) and tapped dry. […] 75 μl of conjugate (appropriate hapten-HRP) diluted in Tris buffer (pH 7.2) containing EDTA, D-mannitol, sucrose, thimerosal and BSA, was added to each of the wells. The appropriate dilution of conjugate was also determined using standard ELISA checkerboard techniques. The plate was incubated at 25° C. for 1 hour. Excess unbound conjugate was removed by washing 6 times over a 10 minute period with TBST. 125 μl of tetramethylbenzidine (TMB) substrate solution was added to each well of the plate that was then incubated for 20 minutes in the dark at room temperature. The reaction was terminated by addition of 125 μl 0.2M H2SO4 to each well. The absorbance was then measured at 450 nm using a microtiter plate reader. The data are inputted to a computer program called ‘KC Junior’. It is a 4 parameter fit curve and allow the calculation of concentrations between the standard runs.
In a similar manner to that described above, the wells of a 96-well microtiter plate were coated with the IgG fraction of the antiserum raised to Immunogens I or II.
(§2) The data set out in Tables 7-10 are generated using antibodies raised against the indicated Immunogens in a competitive binding assay with the indicated tracers, using the indicated standards
(§3) Using the calibration curves generated and employing a single level of cross reactants, these were used to determine the cross-reactivity of each immunoassay with these substances. These are the standards used for the IC50 and cross-reactivity data generation: […]

[2] = tested on: IgG fraction of antiserum raised to Immunogen IV; details: Antibody to Immunogen IV; cross-reactants at 100 ng/ml; 1000 ng/ml; standard JWH-018
Procedure: as §1
(§4) The wells of an enhanced binding 96 well polystyrene microtiter plate were coated with IgG fraction of antiserum raised to Immunogen I or II, diluted in 10 mM Tris, pH8.5 (125 μl/well). The appropriate antibody coating dilution was determined using standard ELISA checkerboard techniques. The plate was incubated overnight at 4° C., washed 4 times over 10 minutes with Tris buffered saline containing Tween 20 (TBST) and tapped dry. Standard solutions (JWH-018 for Immunogens I and II) were applied at 0, 0.625, 1.25, 2.5, 5, 10, 20 and 40 ng/ml and 50 μl of each was added to the appropriate wells. 75 μl of conjugate (appropriate hapten-HRP) diluted in Tris buffer (pH 7.2) containing EDTA, D-mannitol, sucrose, thimerosal and BSA, was added to each of the wells. The appropriate dilution of conjugate was also determined using standard ELISA checkerboard techniques. The plate was incubated at 25° C. for 1 hour. Excess unbound conjugate was removed by washing 6 times over a 10 minute period with TBST. 125 μl of tetramethylbenzidine (TMB) substrate solution was added to each well of the plate that was then incubated for 20 minutes in the dark at room temperature. The reaction was terminated by addition of 125 μl 0.2M H2SO4 to each well. The absorbance was then measured at 450 nm using a microtiter plate reader. The data are inputted to a computer program called ‘KC Junior’. It is a 4 parameter fit curve and allow the calculation of concentrations between the standard runs. This program is used to calculate the IC50s by dividing the 0 ng/ml OD value by 2 and obtaining the concentration value from the curve for this OD.
(§5) In a similar manner to that described above, the wells of a 96-well microtiter plate were coated with the IgG fraction of the antiserum raised to Immunogens IV, VII or VIII. Standard solutions (JWH-018 for Immunogens IV and VIII, JWH-015 for Immunogen VII) were prepared in TBST at 0, 1.25, 2.5, 5, 10, 20, 40 and 80 ng/ml and conjugate was employed as detection reagent.
as §2
(§6) In order to determine the specificity of the competitive ELISAs, standard solutions of a range of structurally similar synthetic cannabinoids and their metabolites were prepared in TBST.
as §3

[3] = tested on: IgG fraction of antiserum raised to Immunogen VII; details: Antibody to Immunogen VII; cross-reactants at 100 ng/ml; 1000 ng/ml; standard JWH-015
Procedure: as §1, §4, §5, §2, §6, §3

[4] = tested on: IgG fraction of antiserum raised to Immunogen VIII; details: Antibody to Immunogen VIII; cross-reactants at 100 ng/ml; 1000 ng/ml; standard JWH-018
Procedure: as §1, §4, §5, §2, §6, §3

[5] = tested on: IgG fraction of antiserum raised to Immunogen I; details: Antibody to Immunogen I; cross-reactants at 100 ng/ml; 1000 ng/ml; standard JWH-018
Procedure: as §1, §4
In a similar manner to that described above, the wells of a 96-well microtiter plate were coated with the IgG fraction of the antiserum raised to Immunogens I or II. Standard solutions (JWH-018 for Immunogen I and II) were applied at 0, 0.625, 1.25, 2.5, 5, 10, 20 and 40 ng/ml and conjugate was employed as detection reagent.
as §2, §6, §3

Compound | % B/B0 [1] | % B/B0 [2] | % B/B0 [3] | % B/B0 [4] | % B/B0 [5]
CCCCCn1cc(C(=O)c2cccc3c(Cl)cccc23)c2ccccc21 [JWH-398 5-chloronaphthyl isomer] | 23.50% | 7.06% | 91.33% | 19.67% | 35.53%
CCCCn1cc(C(=O)c2cccc3ccccc23)c2cc(O)ccc21 [5-OH JWH-073, JWH-073 5-hydroxyindole metabolite] | 20.73% | 84.06% | 75.11% | 90.70% | 7.34%
CCCCCn1cc(C(=O)c2ccccc2OC)c2ccccc21 [RCS-4 2-methoxy isomer] | 42.74% | 15.28% | 87.27% | 29.32% | 29.14%
O=C(O)CCCn1cc(C(=O)c2cccc3ccccc23)c2ccccc21 [JWH-073 N-butanoic acid metabolite] | 92.20% | 98.95% | 60.01% | 94.98% | 6.88%
CC(C)C(C)n1cc(C(=O)c2cccc3ccccc23)c2ccccc21 (single isomer, unassigned) [JWH 018 N-(1,2-dimethylpropyl) isomer] | 71.33% | 87.11% | 62.29% | 67.71% | 6.60%
O=C(c1cccc2ccccc12)c1cn(CCN2CCOCC2)c2cc(O)ccc12 [JWH-200 6-hydroxyindole metabolite] | 61.65% | 94.41% | 65.52% | 83.20% | 7.27%
COc1cccc(CC(=O)c2cn(CCC3CCCCC3)c3ccccc23)c1 [RCS-8 3-methoxy isomer] |  | 89.43% | 93.73% | 83.62% | 93.24%
CCCCCn1ccc(C(=O)c2cccc3ccccc23)c1 [JWH-030] |  | 93.17% | 89.66% | 94.25% | 61.17%
(+)-CP 55,940 |  | 91.38% | 97.15% | 95.12% | 103.25%
CCCCn1cc(C(=O)c2ccc(OC)cc2)c2ccccc21 [RCS-4-C4 homologue] |  | 27.17% | 100.20% | 9.54% | 76.27%
COc1ccccc1CC(=O)c1cn(CCCCCC(=O)O)c2ccccc12 [JWH 250 N-(5-carboxypentyl) metabolite] |  | 89.88% | 97.60% | 89.30% | 86.21%
CCCCCn1c(C)c(C(=O)c2ccc(OC)c3ccccc23)c2ccccc21 [JWH-098] |  | 44.03% | 82.85% | 59.80% | 77.58%
CCCCCn1cc(C(=O)Cc2ccccc2Cl)c2ccccc21 [JWH-203] |  | 52.15% | 99.08% | 9.19% | 72.55%
CCCCCn1cc(C(=O)Cc2cccc(Cl)c2)c2ccccc21 [JWH 203 3-chloro isomer] |  | 55.09% | 97.42% | 10.34% | 95.59%
COc1ccc(C(=O)c2cn(CCCCCO)c3ccccc23)c2ccccc12 [JWH-081 N-(5-hydroxypentyl) metabolite] |  | 26.31% | 89.31% | 47.16% | 61.86%
CCCCCn1cc(C(=O)C23CC4CC(CC(C4)C2)C3)c2ccccc21 [JWH 018 adamantyl analog] |  | 99.02% | 94.48% | 10.97% | 95.94%
CCc1ccc(C(=O)c2cn(CCCCCC(=O)O)c3ccccc23)c2ccccc12 [JWH-210 N-(5-carboxypentyl) metabolite] |  | 85.29% | 96.07% | 96.27% | 76.77%
CCCC(C)(C)c1ccc2c(c1)OC(C)(C)[C@@H]1CC=C(C)C[C@@H]21 [JWH-133] |  | 98.18% | 101.84% | 100.00% | 100.56%
COc1ccc(C(=O)c2c(C)n(CCN3CCOCC3)c3ccccc23)cc1 [WIN-48,098, Pravadoline] |  | 91.64% | 92.41% | 97.90% | 90.05%
O=C(c1ccc2ccccc2c1)c1cn(CCN2CCOCC2)c2ccccc12 [JWH-200 2′-naphthyl isomer] |  | 92.29% | 94.65% | 96.12% | 28.57%
CCCCCn1cc(C(=O)c2ccc3ccccc3c2)c2ccccc21 [JWH 018 2′-naphthyl isomer] |  | 28.13% | 94.98% | 14.94% | 75.90%
